Measurements taken from ChEMBL document CHEMBL1129878, “Synthesis of 5-epiaragusterol A” (Bioorg Med Chem Lett, 1997).
Values after ≈ are worked out from the molar mass of the structure shown.

Experiments:
[1] = test system: KB; experiment: The compound was tested for the inhibitory activity against the proliferation of KB cells; assay type: functional, cell-based; conditions: Homo sapiens
[2] = test system: L1210; experiment: The compound was tested in vivo for the potent antitumor activity toward L1210 leukemia in mice at the dose of 1.6 (mg/kg); assay type: functional, Mus musculus

SMILES | IC50 [1] | T/C [2]
C[C@@H]1C[C@H]1[C@H](C)C[C@@H](O)[C@@]1([C@H]2CC[C@H]3[C@@H]4CC[C@@H]5CC(=O)CC[C@]5(C)[C@H]4C[C@@H](O)[C@]23C)CO1 [5-EPIARAGUSTEROL A] | 0.041 µg/mL (≈ 0.0894 µM) | –
C[C@@H]1C[C@H]1[C@H](C)C[C@@H](O)[C@@]1([C@H]2CC[C@H]3[C@@H]4CC[C@H]5CC(=O)CC[C@]5(C)[C@H]4C[C@@H](O)[C@]23C)CO1 [ARAGUSTEROL A] | 0.042 µg/mL (≈ 0.0916 µM) | 220%
